Measured values: patent US4409210A, “Antibiotic compound” (priority 1982, dated 1983)
*1 amine or outer side, *2 acyl side, *3 side chain or, on linkers, in order; H or OH if unused. Where a SMILES comes first, the peptide text is derived from it. Bridges are numbered along the chain shown (N, C = ends). [ ]: non-standard residue; d: D form. ξ: configuration not given here. X2 = CCCCCCCCCCCC(CC(=O)[*:1])O[*:2]; ξAsp(3ξ-OH) = NC(C(=O)O)C(O)C(=O)O; X1 = O=C(C1C(O)CCN1[*:1])[*:2]

How the values were obtained:
Format in all cases: cell-based
[1] = tested on: Peptostreptococcus anaerobius A21905; assay: MIC, serial two-fold dilution method (anaerobic)
[2] = tested on: Staphylococcus aureus A20701; assay: MIC, serial two-fold dilution method (aerobic)
[3] = tested on: Staphylococcus aureus #193; assay: MIC, serial two-fold dilution method (aerobic)
[4] = tested on: Staphylococcus aureus A9748; assay: MIC, serial two-fold dilution method (aerobic)
[5] = tested on: Staphylococcus aureus A20394; assay: MIC, serial two-fold dilution method (aerobic)
[6] = tested on: Clostridium perfringens A22787; assay: microbe, parasite or virus in culture
[7] = tested on: Staphylococcus aureus BX-1633; assay: MIC, serial two-fold dilution method (aerobic)
[8] = tested on: Propionibacterium acnes A22650; assay: MIC, serial two-fold dilution method (anaerobic)
[9] = tested on: Propionibacterium acnes A21933; assay: MIC, serial two-fold dilution method (anaerobic)
[10] = tested on: Staphylococcus aureus A20239; assay: MIC, serial two-fold dilution method (aerobic)
[11] = tested on: Pseudomonas aeruginosa D-113; assay: MIC, serial two-fold dilution method (aerobic)
[12] = tested on: Proteus mirabilis A9554; assay: MIC, serial two-fold dilution method (aerobic)
[13] = tested on: Bacteroides fragilis A21900; assay: MIC, serial two-fold dilution method (anaerobic)
[14] = tested on: Bacteroides ovatus A22400; assay: MIC, serial two-fold dilution method (anaerobic)
[15] = tested on: Veillonella alcalescens A21914-1; assay: MIC, serial two-fold dilution method (anaerobic)
[16] = tested on: Bacillus subtilis ATCC 6633; assay: MIC, serial two-fold dilution method (aerobic)
[17] = tested on: Veillonella parvula A20010; assay: MIC, serial two-fold dilution method (anaerobic)
[18] = tested on: Staphylococcus aureus A9601; assay: MIC, serial two-fold dilution method (aerobic)
[19] = tested on: Propionibacterium acnes A21953; assay: MIC, serial two-fold dilution method (anaerobic)
[20] = tested on: Sarcina lutea PCI-1001; assay: MIC, serial two-fold dilution method (aerobic)
[21] = tested on: Clostridium cylindrosporum A9562; assay: MIC, serial two-fold dilution method (anaerobic)
[22] = tested on: Clostridium perfringens A9635; assay: microbe, parasite or virus in culture
[23] = tested on: Fusobacterium varium ATCC 8501; assay: MIC, serial two-fold dilution method (anaerobic)
[24] = tested on: Bacteroides fragilis CUH-9; assay: MIC, serial two-fold dilution method (anaerobic)
[25] = tested on: Peptostreptococcus intermedius A21881; assay: MIC, serial two-fold dilution method (anaerobic)
[26] = tested on: Klebsiella pneumoniae D-11; assay: MIC, serial two-fold dilution method (aerobic)
[27] = tested on: Bacteroides fragilis A20926; assay: MIC, serial two-fold dilution method (anaerobic)
[28] = tested on: Staphylococcus aureus A9856; assay: MIC, serial two-fold dilution method (aerobic)
[29] = tested on: Staphylococcus aureus A20610; assay: MIC, serial two-fold dilution method (aerobic)

CN[C@H](CC(C)C)C(=O)N[C@H]1C(=O)N[C@@H](CC(N)=O)C(=O)N[C@H]2C(=O)N[C@H]3C(=O)N[C@H](C(=O)N[C@H](C(=O)O)c4cc(O)cc(O)c4-c4cc3ccc4O)[C@H](O)c3ccc(c(Cl)c3)Oc3cc2cc(c3O[C@@H]2O[C@H](CO)[C@@H](O)[C@H](O)[C@H]2O[C@H]2C[C@](C)(N)[C@H](O)[C@H](C)O2)Oc2ccc(cc2Cl)[C@H]1O [Vancomycin]
3.1 µg/mL: MIC ([27]; Bacteroides fragilis, A20926, read-out: minimum inhibitory concentration (MIC))
6.3 µg/mL: MIC ([13]; Bacteroides fragilis, A21900, read-out: minimum inhibitory concentration (MIC)) | MIC ([23]; Fusobacterium varium, ATCC8501, read-out: minimum inhibitory concentration (MIC))
50 µg/mL: MIC ([14]; Bacteroides ovatus, A22400, read-out: minimum inhibitory concentration (MIC)) | MIC ([24]; Bacteroides fragilis, CUH9, read-out: minimum inhibitory concentration (MIC))
0.4 µg/mL: MIC ([1]; Peptostreptococcus anaerobius, A21905, read-out: minimum inhibitory concentration (MIC)) | MIC ([5]; Staphylococcus aureus, A20394, read-out: minimum inhibitory concentration (MIC)) | MIC ([20]; Micrococcus luteus, PCI1001, read-out: minimum inhibitory concentration (MIC))
1.6 µg/mL: MIC ([10]; Staphylococcus aureus, A20239, read-out: minimum inhibitory concentration (MIC)) | MIC ([15]; Veillonella parvula, A219141, read-out: minimum inhibitory concentration (MIC)) | MIC ([22]; Clostridium perfringens, A9635, read-out: minimum inhibitory concentration (MIC)) | MIC ([25]; Peptostreptococcus, A21881, read-out: minimum inhibitory concentration (MIC))
0.8 µg/mL: MIC ([2]; Staphylococcus aureus, A20701, read-out: minimum inhibitory concentration (MIC)) | MIC ([3]; Staphylococcus aureus, read-out: minimum inhibitory concentration (MIC)) | MIC ([4]; Staphylococcus aureus, A9748, read-out: minimum inhibitory concentration (MIC)) | MIC ([6]; Clostridium perfringens, A22787, read-out: minimum inhibitory concentration (MIC)) | MIC ([7]; Staphylococcus aureus, BX1633, read-out: minimum inhibitory concentration (MIC)) | MIC ([8]; Cutibacterium acnes, A22650, read-out: minimum inhibitory concentration (MIC)) | MIC ([9]; Cutibacterium acnes, A21933, read-out: minimum inhibitory concentration (MIC)) | MIC ([17]; Veillonella parvula, A20010, read-out: minimum inhibitory concentration (MIC)) | MIC ([18]; Staphylococcus aureus, A9601, read-out: minimum inhibitory concentration (MIC)) | MIC ([19]; Cutibacterium acnes, A21953, read-out: minimum inhibitory concentration (MIC)) | MIC ([21]; Clostridium cylindrosporum, A9562, read-out: minimum inhibitory concentration (MIC)) | MIC ([28]; Staphylococcus aureus, A9856, read-out: minimum inhibitory concentration (MIC)) | MIC ([29]; Staphylococcus aureus, A20610, read-out: minimum inhibitory concentration (MIC))
0.1 µg/mL: MIC ([16]; Bacillus subtilis, ATCC6633, read-out: minimum inhibitory concentration (MIC))
> 100 µg/mL: MIC ([11]; Pseudomonas aeruginosa, D113, read-out: minimum inhibitory concentration (MIC)) | MIC ([12]; Proteus mirabilis, A9554, read-out: minimum inhibitory concentration (MIC)) | MIC ([26]; Klebsiella pneumoniae, D11, read-out: minimum inhibitory concentration (MIC))

CCCCCCCCCCCC1CC(=O)N2CCCC2C(=O)NC(CO)C(=O)N2CCCC2C(=O)NC(CCCNC(=N)N)C(=O)NC(C(O)C(=O)O)C(=O)NC(CO)C(=O)N2CCC(O)C2C(=O)NC(C(O)C(=O)O)C(=O)O1 (stereo not shown) [Bu-2517] (PSPR[ξAsp(3ξ-OH)]S[X1][ξAsp(3ξ-OH)]; linker N-C via X2; configuration not given here)
3.1 µg/mL: minimum inhibitory concentration (MIC) ([6]; Clostridium perfringens A22787, GAM agar medium, inoculum 10^7-10^8) | minimum inhibitory concentration (MIC) ([25]; Peptostreptococcus intermedius A21881, GAM agar medium, inoculum 10^7-10^8)
50 µg/mL: minimum inhibitory concentration (MIC) ([23]; Fusobacterium varium ATCC 8501, GAM agar medium, inoculum 10^7-10^8)
< 0.05 µg/mL: minimum inhibitory concentration (MIC) ([20]; Sarcina lutea PCI-1001, Mueller-Hinton agar, inoculum 10^4)
> 100 µg/mL: minimum inhibitory concentration (MIC) ([11]; Pseudomonas aeruginosa D-113, Mueller-Hinton agar, inoculum 10^4) | minimum inhibitory concentration (MIC) ([12]; Proteus mirabilis A9554, Mueller-Hinton agar, inoculum 10^4) | minimum inhibitory concentration (MIC) ([14]; Bacteroides ovatus A22400, GAM agar medium, inoculum 10^7-10^8) | minimum inhibitory concentration (MIC) ([26]; Klebsiella pneumoniae D-11, Mueller-Hinton agar, inoculum 10^4)
6.3 µg/mL: minimum inhibitory concentration (MIC) ([13]; Bacteroides fragilis A21900, GAM agar medium, inoculum 10^7-10^8) | minimum inhibitory concentration (MIC) ([19]; Propionibacterium acnes A21953, GAM agar medium, inoculum 10^7-10^8)
100 µg/mL: minimum inhibitory concentration (MIC) ([24]; Bacteroides fragilis CUH-9, GAM agar medium, inoculum 10^7-10^8)
25 µg/mL: minimum inhibitory concentration (MIC) ([27]; Bacteroides fragilis A20926, GAM agar medium, inoculum 10^7-10^8)
1.6 µg/mL: minimum inhibitory concentration (MIC) ([2]; Staphylococcus aureus A20701, Mueller-Hinton agar, inoculum 10^4) | minimum inhibitory concentration (MIC) ([3]; Staphylococcus aureus #193, Mueller-Hinton agar, inoculum 10^4) | minimum inhibitory concentration (MIC) ([4]; Staphylococcus aureus A9748, Mueller-Hinton agar, inoculum 10^4) | minimum inhibitory concentration (MIC) ([5]; Staphylococcus aureus A20394, Mueller-Hinton agar, inoculum 10^4) | minimum inhibitory concentration (MIC) ([7]; Staphylococcus aureus BX-1633, Mueller-Hinton agar, inoculum 10^4) | minimum inhibitory concentration (MIC) ([9]; Propionibacterium acnes A21933, GAM agar medium, inoculum 10^7-10^8) | minimum inhibitory concentration (MIC) ([10]; Staphylococcus aureus A20239, Mueller-Hinton agar, inoculum 10^4) | minimum inhibitory concentration (MIC) ([15]; Veillonella alcalescens A21914-1, GAM agar medium, inoculum 10^7-10^8) | minimum inhibitory concentration (MIC) ([17]; Veillonella parvula A20010, GAM agar medium, inoculum 10^7-10^8) | minimum inhibitory concentration (MIC) ([18]; Staphylococcus aureus A9601, Mueller-Hinton agar, inoculum 10^4) | minimum inhibitory concentration (MIC) ([21]; Clostridium cylindrosporum A9562, GAM agar medium, inoculum 10^7-10^8) | minimum inhibitory concentration (MIC) ([22]; Clostridium perfringens A9635, GAM agar medium, inoculum 10^7-10^8) | minimum inhibitory concentration (MIC) ([29]; Staphylococcus aureus A20610, Mueller-Hinton agar, inoculum 10^4)
0.8 µg/mL: minimum inhibitory concentration (MIC) ([1]; Peptostreptococcus anaerobius A21905, GAM agar medium, inoculum 10^7-10^8) | minimum inhibitory concentration (MIC) ([8]; Propionibacterium acnes A22650, GAM agar medium, inoculum 10^7-10^8) | minimum inhibitory concentration (MIC) ([16]; Bacillus subtilis ATCC 6633, Mueller-Hinton agar, inoculum 10^4) | minimum inhibitory concentration (MIC) ([28]; Staphylococcus aureus A9856, Mueller-Hinton agar, inoculum 10^4)
